Test systems include SF-295 CNS; TK-10 renal; HL-60(TB) leukemia; IGROV1 ovarian; COLO 205 colon; SF-268 CNS; NCI-H460 lung; BT-549 breast; NCI/ADR-RES ovarian; SNB-78 CNS; M19-MEL melanoma.
What all share (test): growth of human tumour cells (NCI), 48 h

Structures are written as SMILES.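 Grown in 96-well plates, cells were treated for 48 hours with each compound at five concentrations. Insufficient inhibition: endpoint recorded as highest concentration tested. The concentration for full growth arrest is given as TGI.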 Where only a bound is given, the exact number is not on record here.

As to `[N-]=[N+]=Nc1c(-c2ccccc2)c(Cl)nc2ccccc12`, the TGI in the assay with SF-295 CNS is over 100 µM; in the assay on TK-10 renal, over 100 µM; in the assay on HL-60(TB) leukemia it was over 100 µM; in the assay with IGROV1 ovarian it was over 100 µM; with COLO 205 colon, 44.7 µM; in the assay on SF-268 CNS, over 100 µM. Also, the values for the TGI in the assay on NCI-H460 lung, with BT-549 breast and with NCI/ADR-RES ovarian were over 100 µM, 77.1 µM and over 100 µM, respectively.
On to `CCCN(C(=O)c1c(Cl)nnc(Cl)c1C(=O)c1cc(Cl)nnc1Cl)c1cc(Cl)nnc1Cl`, for which the TGI amounted to 42.3 µM with SF-295 CNS; 32.2 µM in the assay with TK-10 renal; 7.16 µM in the assay with HL-60(TB) leukemia; 21.2 µM with IGROV1 ovarian; 18.6 µM in the assay on COLO 205 colon; 20.2 µM in the assay on SF-268 CNS. In addition, the TGI with NCI-H460 lung is 70.4 µM; in the assay on BT-549 breast it was 32.9 µM; in the assay on NCI/ADR-RES ovarian it was 69.1 µM.
Regarding `COC(=O)C1CC2(CCC1=O)Cc1ccccc1C2=O` (stereo unspecified), the TGI in the assay on SF-295 CNS, in the assay on TK-10 renal, in the assay with HL-60(TB) leukemia, with IGROV1 ovarian, with COLO 205 colon and in the assay with SF-268 CNS was over 100 µM in each case. The TGI in the assay with NCI-H460 lung, in the assay with BT-549 breast and in the assay with NCI/ADR-RES ovarian was over 100 µM throughout.
For the molecule `COC(=O)c1c2n(c3ccccc13)C[C@H]1OC(C)(C)O[C@@H]21`, the TGI in the assay on SF-295 CNS, in the assay on TK-10 renal, in the assay with HL-60(TB) leukemia, in the assay with IGROV1 ovarian, with COLO 205 colon and in the assay on SF-268 CNS was over 100 µM in each case. Further, the TGI in the assay on NCI-H460 lung, in the assay on BT-549 breast and with NCI/ADR-RES ovarian was over 100 µM throughout.
With `CCC1(CC)CC(=NNS(=O)(=O)c2ccc(C)cc2)C1`, the TGI with SF-295 CNS, in the assay with TK-10 renal, in the assay with HL-60(TB) leukemia, with IGROV1 ovarian, with COLO 205 colon and in the assay on SF-268 CNS was over 100 µM throughout. Moreover, the TGI in the assay with NCI-H460 lung, in the assay with BT-549 breast and in the assay with NCI/ADR-RES ovarian was over 100 µM in each case.
Turning to `Cc1c(/C=N/NC(=S)Nc2ccccc2Cl)c(=O)n(-c2ccccc2)n1C`, the TGI is 89.4 µM in the assay with SF-295 CNS; 91.7 µM in the assay on TK-10 renal; over 100 µM in the assay on HL-60(TB) leukemia; over 100 µM with IGROV1 ovarian; over 100 µM in the assay on COLO 205 colon; over 100 µM with SF-268 CNS. Besides, the TGI is over 100 µM in the assay on NCI-H460 lung, over 100 µM with BT-549 breast and 76.1 µM in the assay on NCI/ADR-RES ovarian.
Take `N#CC(c1ccccc1)c1nc2ccc(=N)cc-2n(O)c1C(C#N)c1ccccc1` (stereo unspecified): the TGI with SF-295 CNS, in the assay with TK-10 renal, in the assay with HL-60(TB) leukemia, in the assay with IGROV1 ovarian, in the assay with COLO 205 colon and in the assay with SF-268 CNS was over 100 µM each time. In addition, the TGI in the assay on NCI-H460 lung, in the assay with SNB-78 CNS and in the assay with M19-MEL melanoma was over 100 µM throughout.
Take `O=C(N=S(NC(=O)c1ccccc1)C(Cl)(Cl)Cl)c1ccccc1` (stereo unspecified): the TGI in the assay on SF-295 CNS was over 59 µM; in the assay on TK-10 renal, over 100 µM; in the assay on HL-60(TB) leukemia it was 13.7 µM; with IGROV1 ovarian it was over 49 µM; in the assay with COLO 205 colon, 29.4 µM; in the assay with SF-268 CNS, over 100 µM. The TGI was over 70.9 µM in the assay on NCI-H460 lung, 32.4 µM in the assay with BT-549 breast and over 51.9 µM in the assay with NCI/ADR-RES ovarian.
In the case of `CCOC(=O)C1=C(O)C(=O)c2ccsc2C1=O`, the TGI in the assay on SF-295 CNS, in the assay on TK-10 renal, with HL-60(TB) leukemia, in the assay on IGROV1 ovarian, with COLO 205 colon and with SF-268 CNS was over 100 µM each time. The TGI is over 100 µM in the assay on NCI-H460 lung, over 100 µM with SNB-78 CNS and 40.5 µM with M19-MEL melanoma.
In the case of `CC1=C2C(=O)c3ccccc3C(=O)[C@H]2[C@H]2CCO[C@H]2O1`, the TGI was 48.9 µM with SF-295 CNS; 67 µM in the assay with TK-10 renal; 61.1 µM in the assay on HL-60(TB) leukemia; 31.1 µM in the assay on IGROV1 ovarian; over 100 µM with COLO 205 colon; 35.1 µM in the assay with SF-268 CNS. Moreover, the TGI in the assay with NCI-H460 lung was determined as 45.1 µM; in the assay on BT-549 breast, 28.2 µM; in the assay on NCI/ADR-RES ovarian, 67 µM.
Consider `CCOC(=O)CSc1nc(-c2ccccc2)c(C#N)c(=O)[nH]1`, for which the TGI with SF-295 CNS, in the assay on TK-10 renal, in the assay on HL-60(TB) leukemia, in the assay with IGROV1 ovarian, in the assay on COLO 205 colon and in the assay with SF-268 CNS was over 100 µM in each case. Besides, the TGI in the assay on NCI-H460 lung, in the assay on BT-549 breast and in the assay with NCI/ADR-RES ovarian was over 100 µM each time.
With `Fc1ccc2nc3n(c2c1)C(c1c(F)cccc1F)SC3` (stereo unspecified), the TGI was over 100 µM in the assay on SF-295 CNS; over 100 µM with TK-10 renal; 53 µM in the assay with HL-60(TB) leukemia; over 100 µM in the assay with IGROV1 ovarian; over 100 µM with COLO 205 colon; over 100 µM in the assay on SF-268 CNS. Further, the TGI in the assay with NCI-H460 lung, with BT-549 breast and in the assay with NCI/ADR-RES ovarian was over 100 µM each time.
In the case of `CC(=O)OC1C(O)COC(O[C@H]2CC[C@]34C[C@]35CC[C@]3(C)C([C@@]6(C)CC[C@@H](C(C)(C)O)O6)[C@@H](O)C[C@@]3(C)C5C[C@H](OC3OCC(O)C(O)C3O)[C@H]4C2(C)C)C1OC1OCC(O)C(O)C1O` (stereo partly specified), the TGI in the assay with SF-295 CNS, in the assay on TK-10 renal, in the assay on HL-60(TB) leukemia, in the assay with IGROV1 ovarian, with COLO 205 colon and in the assay on SF-268 CNS was over 100 µM throughout. The TGI in the assay on NCI-H460 lung, in the assay with BT-549 breast and with NCI/ADR-RES ovarian was over 100 µM each time.
For the molecule `CC1(C)CC(=O)c2c(nc3ccc4ccccc4c3c2-c2ccc(NC(=O)CCCC(=O)Nc3ccc(-c4c5c(nc6ccc7ccccc7c46)CC(C)(C)CC5=O)cc3)cc2)C1`, the TGI in the assay on SF-295 CNS, with TK-10 renal, in the assay on HL-60(TB) leukemia, in the assay on IGROV1 ovarian, in the assay on COLO 205 colon and in the assay with SF-268 CNS was over 100 µM each time. Also, the TGI in the assay with NCI-H460 lung, with BT-549 breast and with NCI/ADR-RES ovarian was over 100 µM in each case.

The values are drawn from PubChem BioAssay (NCI).
